Results: patent publication US20160002204A1 (Board of Regents, The University of Texas System, priority 2014, published 2016)
One block for each compound: values may come before it.

Assays:
A549 cells = experiment: A549 proliferation (viability) assay, Cell Titer Fluor, 72 hours; type: cell-based; conditions: Homo sapiens
In short: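 A549 cells seeded at 1000 cells/well, left 24 h, then exposed to compound for 72 h at 37 °C, 5% CO2, final DMSO 0.5% (v/v). Viability read by Cell Titer Fluor fluorescence; EC50 from four-parameter logistic fit.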

[1] = target: T1, GLS1 (purified recombinant human GAC) (Homo sapiens, UniProt O94925); experiment: GLS1 enzymatic activity assay (dual-coupled, Amplex UltraRed/resorufin); type: biochemical
T1 sequence (O94925 55-598 isoform O94925-3 limits assumed): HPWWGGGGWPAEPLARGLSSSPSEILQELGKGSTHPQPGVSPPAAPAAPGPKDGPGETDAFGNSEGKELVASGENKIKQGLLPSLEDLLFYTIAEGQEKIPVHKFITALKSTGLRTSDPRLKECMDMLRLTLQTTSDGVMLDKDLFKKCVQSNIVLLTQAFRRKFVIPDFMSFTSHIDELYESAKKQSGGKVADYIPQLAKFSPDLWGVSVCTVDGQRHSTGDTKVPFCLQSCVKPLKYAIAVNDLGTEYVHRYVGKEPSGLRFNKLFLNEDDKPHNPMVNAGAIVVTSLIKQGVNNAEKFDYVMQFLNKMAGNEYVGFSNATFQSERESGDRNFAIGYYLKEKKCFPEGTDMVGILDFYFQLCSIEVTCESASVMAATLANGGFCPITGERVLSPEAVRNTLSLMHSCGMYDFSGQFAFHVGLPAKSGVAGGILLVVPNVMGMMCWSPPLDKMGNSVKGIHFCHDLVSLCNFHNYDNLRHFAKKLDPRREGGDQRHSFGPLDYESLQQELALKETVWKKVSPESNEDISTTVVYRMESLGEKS
In short: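 GAC activity measured by coupling glutamate to glutamate oxidase and HRP, generating resorufin from Amplex UltraRed. Enzyme (2 nM) preincubated with 50 mM potassium phosphate 10 min at room temperature, then inhibitor 10 min; 1 mM glutamine substrate, 1% DMSO. Fluorescence 530/590 nm, kinetic or 20-min endpoint; IC50 from four-parameter logistic fit.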

- EC50 (A549 cells): 100 to 500 nM
- IC50 [1]: < 100 nM
Compound: O=C(Cc1ccccn1)Nc1nnc(CCCCn2ccc(NC(=O)CC3CCCC3)c(F)c2=O)s1 [Example 504, 2-cyclopentyl-N-[3-fluoro-2-oxo-1-(4-{5-[2-(pyridin-2-yl)acetamido]-1,3,4-thiadiazol-2-yl}butyl)-1,2-dihydropyridin-4-yl]acetamide]

- EC50 (A549 cells): < 100 nM
- IC50 [1]: < 100 nM
Compound: O=C(NCc1cccc(OC(F)(F)F)c1)c1cn(CCCCn2ccc(NC(=O)C(F)c3ccccc3)cc2=O)nn1 (stereo not shown) [Example 167, 1-{4-[4-(2-fluoro-2-phenylacetamido)-2-oxo-1,2-dihydropyridin-1-yl]butyl}-N-{[3-(trifluoromethoxy)phenyl]methyl}-1H-1,2,3-triazole-4-carboxamide]

- EC50 (A549 cells): 100 to 500 nM
- IC50 [1]: < 100 nM
Compound: O=C(NCc1ccc(C(F)(F)F)nc1)c1cn(CC(F)CCn2ccc(NC(=O)C(F)c3ccccc3)c(F)c2=O)nn1 (stereo not drawn) [Example 372, l-{2-fluoro-4-[3-fluoro-4-(2-fluoro-2-phenylacetamido)-2-oxo-1,2-dihydropyridin-1-yl]butyl}-N-{[6-(trifluoromethyl)pyridin-3-yl]methyl}-1H-1,2,3-triazole-4-carboxamide]

- EC50 (A549 cells): 100 to 500 nM
- IC50 [1]: < 100 nM
Compound: O=C(Nc1ccn(CCCCn2cc(C(=O)NCc3cccc(OC(F)(F)F)c3)nn2)c(=O)c1)OCc1cccc(OC(F)(F)F)c1 [Example 64, [3-(trifluoromethoxy)phenyl]methyl N-(2-oxo-1-{4-[4-({[3-(trifluoro-methoxy)phenyl]methyl}carbamoyl)-1H-1,2,3-triazol-1-yl]butyl}-1,2-dihydropyridin-4-yl)carbamate]

- EC50 (A549 cells): 100 to 500 nM
- IC50 [1]: < 100 nM
Compound: O=C(Cc1ccccc1)Nc1ccn(CC(F)CCn2cc(C(=O)NCc3cc(C(F)(F)F)ccn3)nn2)c(=O)c1 (stereo not shown) [Example 161, 1-{3-fluoro-4-[2-oxo-4-(2-phenylacetamido)-1,2-dihydropyridin-1-yl]butyl}-N-{[4-(trifluoromethyl)pyridin-2-yl]methyl}-1H-1,2,3-triazole-4-carboxamide]

- EC50 (A549 cells): 100 to 500 nM
- IC50 [1]: < 100 nM
Compound: O=C(Cc1ccccc1)Nc1ccn(CCC(F)Cn2cc(C(=O)NCc3cc(C(F)(F)F)ccn3)nn2)c(=O)c1 (stereo not shown) [Example 164, 1-{2-fluoro-4-[2-oxo-4-(2-phenylacetamido)-1,2-dihydropyridin-1-yl]butyl}-N-{[4-(trifluoromethyl)pyridin-2-yl]methyl}-1H-1,2,3-triazole-4-carboxamide]

- EC50 (A549 cells): 100 to 500 nM
- IC50 [1]: < 100 nM
Compound: O=C(CC1CCSCC1)Nc1ccn(CCCCn2cc(C(=O)NCc3cccc(OC(F)(F)F)c3)nn2)c(=O)c1 [Example 169, 1-(4-{2-oxo-4-[2-(thian-4-yl)acetamido]-1,2-dihydropyridin-1-yl}butyl)-N-{[3-(trifluoromethoxy)phenyl]methyl}-1H-1,2,3-triazole-4-carboxamide]

- EC50 (A549 cells): 100 to 500 nM
- IC50 [1]: < 100 nM
Compound: O=C(CC1CCCCC1)Nc1ccn(CCCCn2cc(C(=O)NCc3cccnc3)nn2)c(=O)c1 [Example 191, 1-{4-[4-(2-cyclohexylacetamido)-2-oxo-1,2-dihydropyridin-1-yl]butyl}-N-(pyridin-3-ylmethyl)-1H-1,2,3-triazole-4-carboxamide]

- EC50 (A549 cells): 100 to 500 nM
- IC50 [1]: < 100 nM
Compound: O=C(Cc1ccccn1)Nc1ccn(CCCCc2nnc(C(=O)NCc3cccc(OC(F)(F)F)c3)s2)c(=O)c1 [Example 456, 5-(4-{2-oxo-4-[2-(pyridin-2-yl)acetamido]-1,2-dihydropyridin-1-yl}butyl)-N-{[3-(trifluoromethoxy)phenyl]methyl}-1,3,4-thiadiazole-2-carboxamide]

- EC50 (A549 cells): 500 to 5000 nM
- IC50 [1]: < 100 nM
Compound: Cc1cccc(CNC(=O)c2cn(CCC(F)Cn3ccc(NC(=O)Cc4ccccc4)cc3=O)nn2)n1 (stereo not shown) [Example 162, 1-{3-fluoro-4-[2-oxo-4-(2-phenylacetamido)-1,2-dihydropyridin-1-yl]butyl}-N-[(6-methylpyridin-2-yl)methyl]-1H-1,2,3-triazole-4-carboxamide]

- EC50 (A549 cells): 500 to 5000 nM
- IC50 [1]: 100 to 500 nM
Compound: O=C(CC1CCNCC1)Nc1ccn(CCC(F)Cn2cc(C(=O)NCc3cccc(OC(F)(F)F)c3)nn2)c(=O)c1 (stereo not shown) [Example 280, 1-(2-fluoro-4-{2-oxo-4-[2-(piperidin-4-yl)acetamido]-1,2-dihydropyridin-1-yl}butyl)-N-{[3-(trifluoromethoxy)phenyl]methyl}-1H-1,2,3-triazole-4-carboxamide]

- EC50 (A549 cells): 100 to 500 nM
- IC50 [1]: < 100 nM
Compound: O=C(NCc1cccc(OC(F)(F)F)c1)c1ccn(CCCCn2cc(C(=O)NCc3cccc(OC(F)(F)F)c3)nn2)c(=O)c1 [Example 59, 2-oxo-N-{[3-(trifluoromethoxy)phenyl]methyl}-1-{4-[4-({[3-(trifluoro-methoxy)phenyl]methyl}carbamoyl)-1H-1,2,3-triazol-1-yl]butyl}-1,2-dihydropyridine-4-carboxamide]

- EC50 (A549 cells): 500 to 5000 nM
- IC50 [1]: 100 to 500 nM
Compound: O=C(Cc1ccccc1)Nc1ccn(CCCCn2cc(C(=O)NCC3CCCCC3)nn2)c(=O)c1 [Example 36, N-(cyclohexylmethyl)-1-{4-[2-oxo-4-(2-phenylacetamido)-1,2-dihydropyridin-1-yl]butyl}-1H-1,2,3-triazole-4-carboxamide]

The next lines start with the compound.

Compound: O=C(Cc1cccc(OC(F)(F)F)c1)Nc1ccn(CCCCn2cc(C(=O)NCc3ccccn3)nn2)c(=O)c1 [Example 10, 1-(4-(2-oxo-4-(2-(3-(trifluoromethoxy)phenyl)acetamido)pyridin-1(2H)-yl)butyl)-N-(pyridin-2-ylmethyl)-1H-1,2,3-triazole-4-carboxamide]
- EC50 (A549 cells): 500 to 5000 nM
- IC50 [1]: < 100 nM

Compound: O=C(Cc1cccc(OC(F)(F)F)c1)Nc1ccc(CCCCn2ccc(NC(=O)OC3CCOCC3)nc2=O)nn1 [Example 105, oxan-4-yl N-{2-oxo-1-[4-(6-{2-[3-(trifluoromethoxy)phenyl]acetamido}pyridazin-3-yl)butyl]-1,2-dihydropyrimidin-4-yl}carbamate]
- EC50 (A549 cells): 100 to 500 nM
- IC50 [1]: < 100 nM

Compound: O=C(Cc1nccs1)Nc1ccn(CCC(F)Cn2cc(C(=O)NCc3cccc(OC(F)(F)F)c3)nn2)c(=O)c1 (stereo not shown) [Example 252, 1-(2-fluoro-4-{2-oxo-4-[2-(1,3-thiazol-2-yl)acetamido]-1,2-dihydropyridin-1-yl}butyl)-N-{[3-(trifluoromethoxy)phenyl]methyl}-1H-1,2,3-triazole-4-carboxamide]
- EC50 (A549 cells): 100 to 500 nM
- IC50 [1]: < 100 nM

Compound: O=C(CN1CCCCC1)Nc1ccn(CCC(F)Cn2cc(C(=O)NCc3cccc(OC(F)(F)F)c3)nn2)c(=O)c1F (stereo not shown) [Example 288, 1-(2-fluoro-4-{3-fluoro-2-oxo-4-[2-(piperidin-1-yl)acetamido]-1,2-dihydropyridin-1-yl}butyl)-N-{[3-(trifluoromethoxy)phenyl]methyl}-1H-1,2,3-triazole-4-carboxamide]
- EC50 (A549 cells): < 100 nM
- IC50 [1]: < 100 nM

Compound: Cc1ccc(CNC(=O)c2cn(CCCCn3ccc(NC(=O)C4CCCC4)cc3=O)nn2)cn1 [Example 159, 1-[4-(4-cyclopentaneamido-2-oxo-1,2-dihydropyridin-1-yl)butyl]-N-[(6-methylpyridin-3-yl)methyl]-1H-1,2,3-triazole-4-carboxamide]
- EC50 (A549 cells): 500 to 5000 nM
- IC50 [1]: 100 to 500 nM

Compound: O=C(Nc1ccn(CCC(F)Cn2cc(C(=O)NCc3cc(C(F)(F)F)ccn3)nn2)c(=O)c1F)OC1CCC1 (stereo not shown) [Example 377, cyclobutyl N-(3-fluoro-1-{3-fluoro-4-[4-({[4-(trifluoromethyl)pyridin-2-yl]methyl}carbamoyl)-1H-1,2,3-triazol-1-yl]butyl}-2-oxo-1,2-dihydropyridin-4-yl)carbamate]
- EC50 (A549 cells): < 100 nM
- IC50 [1]: < 100 nM

Compound: O=C(CC1CCCCC1)Nc1ccn(CCCCn2cc(C(=O)NCc3cccc(OC(F)(F)F)c3)nn2)c(=O)c1 [Example 45, 1-{4-[4-(2-cyclohexylacetamido)-2-oxo-1,2-dihydropyridin-1-yl]butyl}-N-{[3-(trifluoromethoxy)phenyl]methyl}-1H-1,2,3-triazole-4-carboxamide]
- EC50 (A549 cells): < 100 nM
- IC50 [1]: < 100 nM

Compound: O=C(CN1CCCC(CO)C1)Nc1ccn(CCC(F)Cn2cc(C(=O)NCc3cccc(OC(F)(F)F)c3)nn2)c(=O)c1 (stereo not shown) [Example 257, 1-[2-fluoro-4-(4-{2-[3-(hydroxymethyl)piperidin-1-yl]acetamido}-2-oxo-1,2-dihydropyridin-1-yl)butyl]-N-{[3-(trifluoromethoxy)phenyl]methyl}-1H-1,2,3-triazole-4-carboxamide]
- EC50 (A549 cells): 500 to 5000 nM
- IC50 [1]: < 100 nM

Compound: CCNC(=O)Nc1ccn(CCCCc2ccc(NC(=O)Cc3ccccc3)nn2)c(=O)n1 [Example 86, N-[6-(4-{4-[(ethylcarbamoyl)amino]-2-oxo-1,2-dihydropyrimidin-1-yl}butyl)pyridazin-3-yl]-2-phenylacetamide]
- EC50 (A549 cells): > 5000 nM
- IC50 [1]: 500 to 5000 nM

Compound: O=C(CC1CCCCC1)Nc1ccn(CCCCn2cc(C(=O)NCc3ccccn3)nn2)c(=O)c1 [Example 190, 1-{4-[4-(2-cyclohexylacetamido)-2-oxo-1,2-dihydropyridin-1-yl]butyl}-N-(pyridin-2-ylmethyl)-1H-1,2,3-triazole-4-carboxamide]
- EC50 (A549 cells): 500 to 5000 nM
- IC50 [1]: < 100 nM
